Legend:
[1] = Hepatocyte stability assay, mouse hepatocytes; format: in vitro ADME; details: 1 μM compound, 0.5 million cells/mL, 37° C.; for hepatocyte CLint at 1 μM: mouse, cryopreserved hepatocytes, read-out: MH +/− NADPH: Clint (μL/min/million cells)
In short: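 Cryopreserved rat, human or mouse hepatocytes at 0.5 million cells/mL in DMEM with 1 μM compound, 37° C, sampled at 0, 60, 120 and 180 min and quenched with acetonitrile/formic acid. Parent loss vs 0-min by LC/MS/MS gave t½, and Clint = 0.693/t½ × mL incubation/million cells.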

[2] = Microsomal stability assay, mouse liver microsomes; format: in vitro ADME; details: 1 μM compound, 0.5 mg/mL protein, 37° C.; for microsomal CLint at 1 μM: mouse, liver microsomes, pH 7.4, mouse liver microsomes, read-out: MLM +30/− NADPH: Clint (μL/min/mg protein)
In short: (§1)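 Compound at 1 μM was incubated at 37° C with 0.5 mg/mL liver microsomes and 1 mM NADPH and/or 1 mM UDPGA (with alamethicin) in 100 mM potassium phosphate pH 7.4, 3 mM MgCl2. Samples were taken at 0, 15, 30 and 60 min and measured by LC/MS/MS. t½ came from compound loss relative to 0 min, and Clint was scaled with 45 mg microsomal protein/g liver.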

[3] = Microsomal stability assay, human liver microsomes; format: in vitro ADME; details: 0.5 mg/mL protein, 37° C.; for microsomal CLint at 1 μM: pH 7.4, 1 μM compound, read-out: HLM +/− NADPH: Clint (μL/min/mg protein)
In short: as §1

androgen receptor (AR) = target: T1, androgen receptor (AR) (Homo sapiens, UniProt P10275, T878A); assay: Androgen-induced PSA (6.1 kb)-luciferase reporter assay in LNCaP cells; format: cell-based; details: LNCaP cells transfected with PSA (6.1 kb)-luciferase reporter, R1881 1 nM, 24 h; read-out: PSA-Luc IC50 Range
T1 construct: LNCaP cells were transiently transfected with the PSA (6.1 kb)-luciferase reporter for 24 h; endogenous in cells; host or cells: LNCaP
T1 sequence (P10275 1-920 T878A): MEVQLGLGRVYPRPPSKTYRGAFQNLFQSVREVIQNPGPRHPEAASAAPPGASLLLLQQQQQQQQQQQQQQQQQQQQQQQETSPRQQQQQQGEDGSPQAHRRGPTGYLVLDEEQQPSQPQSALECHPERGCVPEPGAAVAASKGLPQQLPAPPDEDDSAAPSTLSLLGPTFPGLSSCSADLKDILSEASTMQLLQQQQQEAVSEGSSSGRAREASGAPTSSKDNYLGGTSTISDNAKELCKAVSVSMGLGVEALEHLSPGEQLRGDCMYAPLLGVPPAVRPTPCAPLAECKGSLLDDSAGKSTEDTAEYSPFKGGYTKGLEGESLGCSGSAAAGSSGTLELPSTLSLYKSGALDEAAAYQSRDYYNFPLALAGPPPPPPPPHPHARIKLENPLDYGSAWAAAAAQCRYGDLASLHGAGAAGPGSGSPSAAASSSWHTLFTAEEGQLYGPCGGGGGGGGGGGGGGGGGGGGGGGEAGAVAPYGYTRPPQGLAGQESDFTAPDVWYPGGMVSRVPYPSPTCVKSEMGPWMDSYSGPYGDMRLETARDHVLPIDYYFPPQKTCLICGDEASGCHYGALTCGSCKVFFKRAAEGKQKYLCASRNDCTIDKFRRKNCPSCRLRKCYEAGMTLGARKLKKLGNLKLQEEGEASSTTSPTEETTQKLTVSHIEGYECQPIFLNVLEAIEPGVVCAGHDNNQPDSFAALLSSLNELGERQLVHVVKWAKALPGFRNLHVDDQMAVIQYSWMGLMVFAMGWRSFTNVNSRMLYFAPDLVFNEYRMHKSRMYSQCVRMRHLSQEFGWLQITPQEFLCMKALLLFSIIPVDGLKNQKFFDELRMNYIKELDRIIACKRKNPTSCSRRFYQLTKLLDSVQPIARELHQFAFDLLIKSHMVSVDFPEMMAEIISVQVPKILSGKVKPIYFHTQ
In short: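 Read-out is firefly luminescence (10 s) in LNCaP lysates, normalized to protein, from an ARE-containing PSA (6.1 kb)-luciferase reporter driven by androgen.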

hepatocyte CLint at 1 μM [1] | microsomal CLint at 1 μM [2] | microsomal CLint at 1 μM [3] | IC50 (androgen receptor (AR)) | Compound | MH +/− NADPH: Clint (μL/min/million cells) [1] | MLM +30/− NADPH: Clint (μL/min/mg protein) ([2]; mouse liver microsomes) | HLM +/− NADPH: Clint (μL/min/mg protein) ([3]; 1 μM compound)
≥ 18 µL/min/1e6 cells | 12 to 48 µL/min/mg | 12 to 48 µL/min/mg | > 2000 nM | CC(C)(c1ccc(OCc2cnc(C#N)o2)cc1)c1cc(Cl)c(OCCCl)c(C#N)c1 [Compound A113] |  |  | 
≥ 18 µL/min/1e6 cells | ≥ 48 µL/min/mg | < 12 µL/min/mg | < 500 nM | CC(C)S(=O)(=O)c1nc(COc2ccc(C(C)(C)c3cc(Cl)c(OCCCl)c(C#N)c3)cc2)co1 [Compound A125] |  |  | 
≥ 18 µL/min/1e6 cells | ≥ 48 µL/min/mg | 12 to 48 µL/min/mg | > 2000 nM | CC(N)(c1ccc(OCc2ocnc2S(C)(=O)=O)cc1)c1cc(Cl)c(OCCCl)c(C#N)c1 (stereo not shown) [Compound A105] |  |  | 
≥ 18 µL/min/1e6 cells | ≥ 48 µL/min/mg | ≥ 48 µL/min/mg | < 500 nM | CC(=O)Nc1nc(COc2ccc(C(C)(C)c3cc(Cl)c(OCCCl)c(C#N)c3)cc2)co1 [Compound A140] |  |  | 
4 to 18 µL/min/1e6 cells | < 12 µL/min/mg | < 12 µL/min/mg | < 500 nM | CC(C)(c1ccc(OCc2ccc(S(C)(=O)=O)o2)cc1)c1cc(Cl)c(OCCCl)c(C#N)c1 [Compound A168, 3-chloro-2-(2-chloroethoxy)-5-(2-(4-((5-(methylsulfonyl)furan-2-yl)methoxy)phenyl)propan-2-yl)benzonitrile] |  |  | 
≥ 18 µL/min/1e6 cells | ≥ 48 µL/min/mg | 12 to 48 µL/min/mg | < 500 nM | CC(C)S(=O)(=O)c1ncc(COc2ccc(C(C)(C)c3cc(Cl)c(OCCCl)c(C#N)c3)cc2)o1 [Compound A142] |  |  | 
< 4 µL/min/1e6 cells | < 12 µL/min/mg | < 12 µL/min/mg | < 500 nM | CC(C)(c1ccc(OCc2coc(S(N)(=O)=O)c2)cc1)c1cc(Cl)c(OCCCl)c(C#N)c1 [Compound A207] |  |  | 
4 to 18 µL/min/1e6 cells | < 12 µL/min/mg | 12 to 48 µL/min/mg | 500 to 2000 nM | CC(C)(c1ccc(OCc2[nH]cnc2S(C)(=O)=O)cc1)c1cc(Cl)c(OCCCl)c(Cl)c1 [Compound A71] |  |  | 
4 to 18 µL/min/1e6 cells | 12 to 48 µL/min/mg | < 12 µL/min/mg | 500 to 2000 nM | CC(C)(c1ccc(OCc2ncc(S(C)(=O)=O)o2)cc1)c1cc(Cl)c(OCCCl)c(C#N)c1 [Compound A153] |  |  | 
4 to 18 µL/min/1e6 cells | ≥ 48 µL/min/mg | 12 to 48 µL/min/mg | < 500 nM | CC(C)(c1ccc(OCc2coc(N)n2)cc1)c1cc(Cl)c(OCCCl)c(C#N)c1 [Compound A155] |  |  | 
4 to 18 µL/min/1e6 cells | < 12 µL/min/mg | < 12 µL/min/mg | < 500 nM | CC(C)(c1ccc(OCc2ccnc(NS(C)(=O)=O)c2)cc1)c1cc(Cl)c(OCCCl)c(C#N)c1 [Compound A195] |  |  | 
≥ 18 µL/min/1e6 cells | 12 to 48 µL/min/mg | 12 to 48 µL/min/mg | < 500 nM | CC(Oc1ccc(C(C)(C)c2cc(Cl)c(OCCCl)c(C#N)c2)cc1)c1cnc(NS(C)(=O)=O)o1 (stereo not shown) [Compound A92] |  |  | 
4 to 18 µL/min/1e6 cells | 12 to 48 µL/min/mg | 12 to 48 µL/min/mg | 500 to 2000 nM | CC(C)(c1ccc(CCc2ccnc(N)n2)cc1)c1cc(Cl)c(OCCCl)c(C#N)c1 [Compound A121] |  |  | 
4 to 18 µL/min/1e6 cells | 12 to 48 µL/min/mg | < 12 µL/min/mg | < 500 nM | CC(C)(c1ccc(OCc2ccnc(N3CCCCS3(=O)=O)n2)cc1)c1cc(Cl)c(OCCCl)c(C#N)c1 [Compound A198] |  |  | 
≥ 18 µL/min/1e6 cells | ≥ 48 µL/min/mg | 12 to 48 µL/min/mg | < 500 nM | Cc1nc(N)cc(COc2ccc(C(C)(C)c3cc(Cl)c(OCCCl)c(C#N)c3)cc2)n1 [Compound A162] |  |  | 
≥ 18 µL/min/1e6 cells | ≥ 48 µL/min/mg | ≥ 48 µL/min/mg | 500 to 2000 nM | CC(=O)Nc1nccc(C(C)Oc2ccc(C(C)(C)c3cc(Cl)c(OCCCl)c(C#N)c3)cc2)n1 (stereo not shown) [Compound A145] |  |  | 
≥ 18 µL/min/1e6 cells | < 12 µL/min/mg | < 12 µL/min/mg | < 500 nM | CC(C)(c1ccc(OCc2cnc(Cl)o2)cc1)c1cc(Cl)c(OCCCl)c(C#N)c1 [Compound A115] |  |  | 
< 4 µL/min/1e6 cells | < 12 µL/min/mg | < 12 µL/min/mg | < 500 nM | CC(C)(c1ccc(OCc2coc(S(C)(=O)=O)c2)cc1)c1cc(Cl)c(OCCCl)c(C#N)c1 [Compound A208] |  |  | 
≥ 18 µL/min/1e6 cells | ≥ 48 µL/min/mg | 12 to 48 µL/min/mg | > 2000 nM | CC(Oc1ccc(C(C)(C)c2cc(Cl)c(OCCCl)c(C#N)c2)cc1)c1ccnc(S(C)(=O)=O)n1 (stereo not shown) [Compound A147] |  |  | 
4 to 18 µL/min/1e6 cells | ≥ 48 µL/min/mg | ≥ 48 µL/min/mg | 500 to 2000 nM | Cn1c(COc2ccc(C(C)(C)c3cc(Cl)c(OCCCl)c(C#N)c3)cc2)ccc1S(C)(=O)=O [Compound A193] |  |  | 
4 to 18 µL/min/1e6 cells | < 12 µL/min/mg | < 12 µL/min/mg | 500 to 2000 nM | CC(C)(c1ccc(OCc2ccnc(C#N)n2)cc1)c1cc(Cl)c(OCCCl)c(C#N)c1 [Compound A200] |  |  | 
 |  |  | < 500 nM | CC(C)(c1ccc(OCc2nccnc2NS(C)(=O)=O)cc1)c1cc(Cl)c(OCCCl)c(C#N)c1 [Compound A104] | * (* represents Cl in the range of ≥18 μL/min/million cells) | * (* represents Cl in the range of ≥48 μL/min/mg protein) | ** (** represents Cl in the range of 12-48 μL/min/mg protein)
≥ 18 µL/min/1e6 cells | ≥ 48 µL/min/mg | ≥ 48 µL/min/mg | < 500 nM | CC(C)(c1ccc(OCc2cnc(NS(C)(=O)=O)o2)cc1)c1cc(Cl)c(OCCCl)c(C#N)c1 [Compound A133] |  |  | 
4 to 18 µL/min/1e6 cells | ≥ 48 µL/min/mg | < 12 µL/min/mg | < 500 nM | CC(C)(c1ccc(OCc2ccnc(N3CCCS3(=O)=O)n2)cc1)c1cc(Cl)c(OCCCl)c(C#N)c1 [Compound A199] |  |  | 
≥ 18 µL/min/1e6 cells | ≥ 48 µL/min/mg | < 12 µL/min/mg | 500 to 2000 nM | CC(C)(c1ccc(OCc2nc(NS(C)(=O)=O)nc3c2CCOC3)cc1)c1cc(Cl)c(OCCCl)c(C#N)c1 [Compound A190] |  |  | 
< 4 µL/min/1e6 cells | < 12 µL/min/mg | < 12 µL/min/mg | 500 to 2000 nM | CC(C)(c1ccc(OCc2cc(CN)nc(NS(C)(=O)=O)n2)cc1)c1cc(Cl)c(OCCCl)c(C#N)c1 [Compound A164, N-(4-(aminomethyl)-6-((4-(2-(3-chloro-4-(2-chloroethoxy)-5-cyanophenyl)propan-2-yl)phenoxy)methyl)pyrimidin-2-yl)methanesulfonamide] |  |  | 
< 4 µL/min/1e6 cells | < 12 µL/min/mg | < 12 µL/min/mg | 500 to 2000 nM | CC(C)(c1ccc(OCc2cnc(NS(C)(=O)=O)cn2)cc1)c1cc(Cl)c(OCCCl)c(C#N)c1 [Compound A197] |  |  | 
4 to 18 µL/min/1e6 cells | 12 to 48 µL/min/mg | < 12 µL/min/mg | 500 to 2000 nM | Cc1nc(COc2ccc(C(C)(C)c3cc(Cl)c(OCCCl)c(C#N)c3)cc2)cc(NS(C)(=O)=O)n1 [Compound A99] |  |  | 

Source: patent US11059795B2, “Androgen receptor modulators and methods for their use” (ESSA Pharma, Inc., priority 2018, dated 2021)
